The values that follow come from US9708247B2, “Modulators of the eIF2alpha pathway” (The Regents of the University of California, priority 2013, dated 2017).

Like-named read-outs stand apart in the source and are kept apart here.

Common to all, as to assay type: cell-based, human
In one test the test system is eIF2α (p-Ser51). Briefly: AlphaScreen SureFire eIF2α(p-Ser51) assay in U2OS cells. The following applies: U2OS cells, ER stressor alone, after 120 minutes. The method, then: U2OS cells were plated on 96 well plates and left to recover overnight. Cells were treated with either with 2 μg/ml tunicamycin or 100 nM thapsigargin in the presence or absence of 100 nM ISRIB or with ISRIB alone for the indicated and the level of eIF2α phosphorylation was determined using the AlphaScreen SureFire eIF2α(p-Ser51) Assay kit (Perkin Elmer) following the manufacturer's recommendations. Plates were read in an Envision Xcite Multilabel Reader using the standard Alpha Screen settings.

The next test relates to global translation. Nature of the test: Metabolic labeling (35S-methionine incorporation) in HEK293T cells. The following applies: 100 nM thapsigargin alone. The method, then:
HEK293T cells were seeded on 12 well plates, allowed to recover overnight and treated for the indicated times with the indicated compounds. The cells were subsequently switched to media lacking methionine and cysteine supplemented with the indicated compounds and 50 μCi of ^35S-methionine (Perkin Elmer) for 20 min. Cells were lysed by addition of SDS-PAGE loading buffer. Lysates were sonicated and equal amounts were loaded on SDS-PAGE gels (BioRad). The gel was dried and radioactive methionine incorporation was detected by exposure to a phosphor-screen and visualized with a Typhoon 9400 Variable Mode Imager (GE Healthcare).

Test [1] concerns ATF4 luciferase reporter. Briefly: ATF4 luciferase reporter assay (Cell-luc) in HEK293T cells. The following applies: ER stressor alone, 384 well format.
Test [2] has as its system ATF4 luciferase reporter. The test is described as above. The text has this:
FIGS. 1A-1C. […]
To identify inhibitors of PERK signaling, we engineered a reporter that allows monitoring of PERK activation in living cells. To this end, we constructed a retroviral vector containing the open-reading frame of firefly luciferase fused to the 5′UTR of ATF4 mRNA (FIG. 1A), which contains two short open-reading frames (uORFs) that control ATF4 translation in a stress-dependent manner. After infection, we established a HEK293T cell line harboring the stably integrated reporter. […] This format was used to screen 106,281 compounds covering a wide chemical space. We identified 460 hits (0.43%) (FIG. 1C), which were further validated in an 8-point dose-response assay using the same reporter. We further triaged the compounds by discarding inhibitors that also affected the IRE1 branch of the UPR using an XBP1-luciferase splicing reporter. […] We next used an orthogonal secondary screen that employed a different reporter (bi-cistronic ATF4-dGFPIRES-mCherry) stably integrated into a different cell line (U20S cells). The read-out of this latter screen was microscopy-based, which allowed us to simultaneously assess acute toxicity by cell counting, further reducing the number of viable hits to 77. As a tertiary screen, we tested compounds for their ability to inhibit ER stress-elicited induction of endogenous ATF4 by Western blot analysis. Twenty-eight compounds passed this test and were analyzed further.
ATF4 reporters were constructed by fusing the human full-length ATF4 5′-UTR (NCBI Accession BC022088.2) in front of the firefly luciferase (FLuc) or a destabilized eGFP (dEGFP) coding sequences lacking the initiator methionine.
The ATF4-FLuc reporter was generated by cloning a PCR-product containing the ATF4 full-length 5′-UTR (from +1 position a the transcription start site down to one nucleotide after the terminator codon of the second uORF) flanked by KpnI/XhoI and BglII sites at the 5′ and 3′ ends, respectively, into the KpnI-BglII sites of pCAX-F-XBP1-Luc. The resulting construct, pCAX-ATF4-FLuc, was then digested with BamHI, blunted with T4 DNA polymerase, and then digested with XhoI. The resulting fragment was then subcloned into the retroviral expression vector pLPCX (Clontech) after digesting it with HindIII, blunting with T4 DNA polymerase and then digesting with XhoI to generate pLPCX-ATF4-FLuc (DAA-312). DAA-312 was used to produce recombinant retroviruses using standard methods and the resulting viral supernatant was used to transduce HEK293T cells, which were then subsequently selected with puromycin to generate a stable cell line employed in the primary screen.
HEK293T cells carrying the ATF4 luciferase reporter were plated on poly-lysine coated 384 well plates (Greiner) at 30,000 cells per well. […] Luminescence was measured using One Glo (Promega) as specified by the manufacturer. […] Thus, these were considered unique to the PERK branch and were cherry-picked for further analysis.

Setting [3] is: ATF4 luciferase reporter, HEK293T cells, read-out: IC50 (nM) Cell-luc.
The mark [4] stands for this setting: Homo sapiens, HEK-293T, ATF4 luciferase reporter, HEK293T cells, read-out: IC50 (nM) Cell-luc.

Turning to `C/C=C(/C)C(=O)O[C@H]1C(C)=C2[C@H]([C@@H]1OC(=O)CCCCCCC)[C@@](C)(OC(C)=O)C[C@H](OC(=O)CCC)[C@@]1(O)[C@H]2OC(=O)[C@@]1(C)O` [Thapsigargin, thapsigargin, reference compound], the “increase of eIF2α phosphorylation” value in the test with eIF2α (p-Ser51) turned out to be 7 fold. Also, the drop in translation in the test with global translation is 40%. For the same molecule, the “induction in luciferase activity” value in the test with ATF4 luciferase reporter [1] turned out to be 4.9 fold. Regarding `N=C(COc1ccc(Cl)cc1)N[C@H]1CC[C@H](NC(=O)COc2ccc(Cl)cc2)CC1` [757264-L3], the IC50 in the test with ATF4 luciferase reporter [2] (setting [3]) was determined as 60 nM. On to `O=C(CNc1ccc(Cl)cc1)N[C@H]1CC[C@H](NC(=O)COc2ccc(Cl)cc2)CC1` [compound 835089], for which, in the test on ATF4 luciferase reporter [2] (setting [4]), the IC50 was 700 nM. Consider `C[C@@H]1NC(=O)N[C@@H]1CCCCCC(=O)NCCOCCOCCOCCn1cc(-c2ccc(OCC(=O)N[C@H]3CC[C@H](NC(=O)COc4ccc(Cl)cc4)CC3)cc2)nn1` [compound 916727], for which, in the test with ATF4 luciferase reporter [2] (setting [4]), the IC50 was determined as 520 nM.

Consider `COc1ccc(OCC(=O)N[C@H]2CC[C@H](NC(=O)COc3ccc(Cl)cc3)CC2)cc1` [compound 751591], for which the IC50 with ATF4 luciferase reporter [2] (setting [4]) turned out to be 250 nM. For `O=C(COc1ccc(Cl)cc1)N[C@H]1CC[C@H](NC(=O)c2ccc(Cl)cc2)CC1` [compound 751596], the IC50 in the test on ATF4 luciferase reporter [2] (setting [4]) is greater than 10000 nM.

As for `O=C(COc1ccc(Cl)cc1)N[C@H]1CC[C@H](NC(=O)COc2ccc(Cl)c(I)c2)CC1` [compound 914582], the IC50 with ATF4 luciferase reporter [2] (setting [4]) was determined as 5.2 nM. As to `O=C(COc1ccc(Cl)cc1)N[C@H]1CC[C@@H](NC(=O)COc2ccc(Cl)cc2)CC1` [cis-ISRIB, 2-(4-chlorophenoxy)-N-[(1s, 4s)-4-[2-(4-chlorophenoxy)acetamido]cyclohexyl]acetamide], the IC50 in the test with ATF4 luciferase reporter [2] (cultured HEK293T cells, 2 μg/ml tunicamycin, 7 h, synthesized isomers, read-out: IC50, inhibition of the ATF4-luciferase reporter) stood at 600 nM. As to `CC(=O)c1ccc(OCC(=O)N[C@H]2CC[C@H](NC(=O)COc3ccc(Cl)cc3)CC2)cc1` [compound 843983], the IC50 with ATF4 luciferase reporter [2] (setting [4]) was greater than 10000 nM. `O=C(COc1ccc(Cl)cc1)N[C@H]1CC[C@H](NC(=O)COc2ccc(Cl)c([N+](=O)[O-])c2)CC1` [compound 874804]: the IC50 in the test with ATF4 luciferase reporter [2] (setting [3]) was 3 nM. For `O=C(COc1ccc(Cl)cc1)N[C@H]1CC[C@H](NC(=O)COc2cccc(F)c2F)CC1` [compound 912563], in the test with ATF4 luciferase reporter [2] (setting [4]), the IC50 was 334 nM. Same read-out and setting: the value for `Cc1cc(OCC(=O)N[C@H]2CC[C@H](NC(=O)COc3ccc(Cl)c(C)c3)CC2)ccc1Cl` [compound 957886] was 3 nM.

Take `Cc1ccc(OCC(=O)N[C@H]2CC[C@H](NC(=O)COc3ccc(Cl)cc3)CC2)cc1` [compound 754128]: in the test with ATF4 luciferase reporter [2] (setting [4]), the IC50 turned out to be 95 nM. Take `N=C(COc1ccc(Cl)cc1)N[C@H]1CC[C@H](N(Cc2cn(CCOCCOCCOCCNC(=O)CCCC[C@@H]3SCC4NC(=O)NC43)nn2)C(=O)COc2ccc(Cl)cc2)CC1` (stereo partly drawn) [compound 835197]: the IC50 in the test with ATF4 luciferase reporter [2] (setting [4]) is greater than 10000 nM. Regarding `O=C(COc1ccc(Cl)cc1)N[C@H]1CC[C@H](NC(=O)COc2ccc(Cl)c(C(F)(F)F)c2)CC1` [compound 874803], the half-maximal inhibitory concentration (IC50) with ATF4 luciferase reporter [2] (setting [4]) was 4 nM.

With `CC(=O)c1cc(OCC(=O)N[C@H]2CC[C@H](NC(=O)COc3ccc(Cl)cc3)CC2)ccc1Cl` [compound 912566], in the test with ATF4 luciferase reporter [2] (setting [4]), the IC50 was 149 nM. Same read-out and setting: with `O=C(COc1ccc(Cl)cc1)N[C@H]1CC[C@H](NC(=O)COc2cccc(F)c2)CC1` [compound 912562] the figure was 125 nM. On the same count and under the same terms, with `O=C(COc1ccc(Cl)cc1)N[C@H]1CC[C@H](NCCOc2ccc(Cl)cc2)CC1` [compound 835195] the figure was 170 nM. Consider `N=C(COc1ccc(Cl)cc1)N[C@H]1CC[C@H](NC(=O)COc2ccc(Cl)cc2)CC1` [757264.1], for which, in the test with ATF4 luciferase reporter [2] (setting [3]), the IC50 stood at 100 nM. On to `O=C(CCCC[C@H]1SCC2NC(=O)NC21)NCCCCCOC(=O)CCCCCn1cc(-c2cc(OCC(=O)N[C@H]3CC[C@H](NC(=O)COc4ccc(Cl)cc4)CC3)ccc2Cl)nn1` (stereo partly drawn) [compound 916847], for which the IC50 in the test with ATF4 luciferase reporter [2] (setting [4]) came out at 900 nM. Regarding `O=C(COc1ccc([N+](=O)[O-])cc1)N[C@H]1CC[C@H](NC(=O)COc2ccc([N+](=O)[O-])cc2)CC1` [compound 757130], the IC50 in the test with ATF4 luciferase reporter [2] (setting [3]) was greater than 10000 nM.

For `Cc1cc(OCC(=O)N[C@H]2CC[C@H](NC(=O)COc3ccc(Cl)cc3)CC2)ccc1Cl` [compound 874801], the IC50 with ATF4 luciferase reporter [2] (setting [4]) was determined as 2.4 nM. The same measure, in the same setting: with `O=C(CCCC[C@H]1SC[C@@H]2NC(=O)N[C@@H]21)NCCCCCOC(=O)CCCCCn1cc(-c2ccc(OCC(=O)N[C@H]3CC[C@H](NC(=O)COc4ccc(Cl)cc4)CC3)cc2)nn1` [compound 916846] the figure was 200 nM; with `C#Cc1ccc(OCC(=O)N[C@H]2CC[C@H](NC(=O)COc3ccc(C#C)cc3)CC2)cc1` [compound 916786], 158 nM. As for `N=C(COc1ccc(Cl)c(F)c1)N[C@H]1CC[C@H](NC(=O)COc2ccc(Cl)c(F)c2)CC1` [compound 957915], the IC50 with ATF4 luciferase reporter [2] (setting [3]) came to 344 nM. With `C#C[C@]1(NC(=O)COc2ccc(Cl)cc2)CC[C@H](NC(=O)COc2ccc(Cl)cc2)CC1` [compound 757149], the IC50 with ATF4 luciferase reporter [2] (setting [4]) amounted to 37 nM. For `O=C(COc1ccc(Cl)cc1)N[C@H]1CC[C@H](NC(=O)CSc2ccc(F)cc2)CC1` [compound 811770], the IC50 in the test with ATF4 luciferase reporter [2] (setting [4]) is 900 nM.

With `O=C(COc1ccc(F)cc1)N[C@H]1CC[C@H](NC(=O)COc2ccc(F)cc2)CC1` [compound 757131], the IC50 in the test with ATF4 luciferase reporter [2] (setting [4]) was 270 nM.
